# Patent US20220296595A1, “CDK INHIBITORS” (QILU REGOR THERAPEUTICS INC., priority 2019, published 2022)
# Read-outs that look alike come from different tables or passages of the source.
# Key:
# CDK4/CyclinD1 = target: T1, CDK4/CyclinD1 (Homo sapiens, UniProt P11802); test: Assay for inhibition of CDK4/CyclinD1 (Caliper microfluidic kinase assay); type: biochemical
# T1 construct: purchased Thermofisher PR8064A
# Procedure, shortened: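 IC50 was obtained by 4-parameter sigmoidal fitting after 1 nM CDK4/CyclinD1, 200 μM ATP and 1 μM FL-34 substrate reacted for 3 h at room temperature (pH 7.5 HEPES, 10 mM MgCl2). After EDTA quench, substrate and product were separated and detected on a Caliper microfluidic chip.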
# CDK2/CyclinE1 = target: T2, CDK2/CyclinE1 (Homo sapiens, UniProt P24941); test: Assay for inhibition of CDK2/CyclinE1 (Caliper microfluidic kinase assay); type: biochemical; conditions: read-out: CDK2 IC50
# T2 construct: purchased SignalChem C29-18G
# Procedure, shortened: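 IC50 came from 4-parameter fits of substrate-to-product conversion, separated on a Caliper chip after an EDTA stop. Reactions ran 3 hours at room temperature with 100 μM ATP, 5 μM fluorescent FL-18 peptide and 5 nM enzyme in 100 mM HEPES pH 7.5, 10 mM MgCl2.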
# T47D breast cancer cells = test: Anti-proliferation assay in T47D cell (Cyquant, day 6); type: cell-based, human; conditions: anti-proliferation, T47D cells, read-out: T47D IC50
# Procedure, shortened: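 A ten-point, 3-fold compound series (10 μM down to 0.51 nM) was applied to overnight-settled cells in 10% FBS RPMI 1640, and DNA content was read by CyQuant fluorescence 6 days later. An untreated plate read before dosing served as baseline for subtraction before IC50 fitting.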
# CDK6/CyclinD3 = target: T3, CDK6/CyclinD3 (Homo sapiens, UniProt Q00534); test: Assay for inhibition of CDK6/CyclinD3 (Caliper microfluidic kinase assay); type: biochemical
# T3 construct: purchased Carna 04-107
# T3 sequence (Q00534 whole entry): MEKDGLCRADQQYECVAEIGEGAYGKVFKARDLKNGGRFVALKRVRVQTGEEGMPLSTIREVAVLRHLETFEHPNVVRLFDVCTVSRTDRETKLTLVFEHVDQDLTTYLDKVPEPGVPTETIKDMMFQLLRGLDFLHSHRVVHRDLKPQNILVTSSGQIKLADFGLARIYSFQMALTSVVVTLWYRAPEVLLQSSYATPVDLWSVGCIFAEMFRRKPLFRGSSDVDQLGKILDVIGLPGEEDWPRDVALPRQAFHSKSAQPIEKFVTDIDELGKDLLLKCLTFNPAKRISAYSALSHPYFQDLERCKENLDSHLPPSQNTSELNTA
# T3 sequence (P30281 whole entry partner): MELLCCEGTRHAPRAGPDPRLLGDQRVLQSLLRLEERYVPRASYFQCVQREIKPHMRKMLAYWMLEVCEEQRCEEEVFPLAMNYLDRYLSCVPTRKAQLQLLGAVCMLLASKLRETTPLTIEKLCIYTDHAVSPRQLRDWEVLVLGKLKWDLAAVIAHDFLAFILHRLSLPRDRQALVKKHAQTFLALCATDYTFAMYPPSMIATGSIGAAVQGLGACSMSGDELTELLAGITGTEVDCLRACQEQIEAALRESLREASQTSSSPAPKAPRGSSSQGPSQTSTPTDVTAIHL
# Experimental: The CDK6 enzyme assay for IC50 determination was performed as follows. Microfluidic kinase detection technology (Caliper) was used to monitor the phosphorylation of peptide substrate by CDK6/CyclinD3. The total reaction volume is 15 μL containing buffer A (100 mM HEPES (pH 7.5), 0.1% BSA, 0.01% Triton X-100, 1 mM DTT, 10 mM MgCl2, 10 μM Sodium Orthovanadate, 10 μM Beta-Glycerophosphate), 300 μM ATP, 2 nM CDK6/CyclinD3 (Carna, 04-107), 1 μM FL-34 (5-FAM-[…]), and the test compound at appropriate dilutions in DMSO. All components were added to the 384-well plate (Corning, 4514), and incubated at Room Temperature for 3 hours. The reaction was terminated by addition of 15 μL Stop Buffer (180 mM HEPES (pH 7.5), 20 mM EDTA, Coating-3 reagent (PerkinElmer, 760050)). The plate was then loaded on Caliper EZ Reader (EZ Reader II, PerkinElmer, HD-4HYSG2772), and the reaction mixtures including substrate and product were sipped into the microfluidic chip for separation and detection. The IC50 values of the test compound were determined by fitting the inhibition curves by 4 parameter sigmoidal dose-response model using the Xlfit5/GraphPad Prism 5 software.
# [1] = tested on: phosphorylation of Retinoblastoma Protein (pRb Ser807/811 or Ser780) in T47D cells; test: Inhibition of phosphorylation of retinoblastoma protein (pRb) in T47D cell (ELISA); type: cell-based, human
# Experimental: T47D breast cancer cells from American Type Culture Collection (ATCC, HTB-133) were plated at 40,000 cells/well in 96-well plates, and were incubated in RPMI 1640 medium (Gibco, 31800105) with 10% Fetal Bovine Serum (FBS, Biowest, FB-1058). Cells were then allowed to adhere overnight at 37° C., 5% CO2. The following day, compounds were titrated in a 3-fold dilution scheme, and the highest compound concentration tested was […]. After 24 hours incubation with compounds, cells were lysed in ice-cold lysis buffer containing phosphatase inhibitor cocktail and 1 mM PMSF. Cell lysates (50 μL/well) were then transferred to ELISA plates (pRb Ser807/811 ELISA kit, Cell Signaling, 13152 or pRb Ser780 ELISA kit, Cell Signaling, 13016)). Plates were incubated overnight at 4° C., with constant slow speed shaking. After incubation, plates were washed following manufacturer's recommendations, and then 100 μL reconstituted detection antibody was added to each well and incubated for 1 hour at 37° C. After incubation, plates were washed, and then 100 μL reconstituted HRP-linked secondary antibody was added to each well and incubated for 30 mins at 37° C. After incubation, plates were washed. Then, 100 μL TMB substrate was added to each well and incubated for 10 min at 37° C. or 30 min at 25° C. Finally, 100 μL of STOP solution was added to each well and mixed gently for a few seconds. Plates were read on the Envision plate reader (PerkinElmer, 2104-0010) using the 96-well […] mode. IC50 values were calculated using 4 parameter sigmoidal dose-response model of Xlfit5/GraphPad Prism 5 software.
# [2] = Homo sapiens, T47D, read-out: Phospho T47D Ser807 IC50, pRb Ser807 phosphorylation, T47D cells
# T1 sequence (P11802 whole entry): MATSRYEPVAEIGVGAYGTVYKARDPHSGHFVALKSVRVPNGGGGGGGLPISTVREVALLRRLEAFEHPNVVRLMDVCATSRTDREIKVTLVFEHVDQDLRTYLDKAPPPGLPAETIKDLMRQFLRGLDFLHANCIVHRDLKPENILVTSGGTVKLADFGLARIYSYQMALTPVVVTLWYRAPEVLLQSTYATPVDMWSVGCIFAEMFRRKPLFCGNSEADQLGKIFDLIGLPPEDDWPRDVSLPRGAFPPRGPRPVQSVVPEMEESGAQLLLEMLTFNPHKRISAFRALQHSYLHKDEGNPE
# T1 sequence (P24385 whole entry partner): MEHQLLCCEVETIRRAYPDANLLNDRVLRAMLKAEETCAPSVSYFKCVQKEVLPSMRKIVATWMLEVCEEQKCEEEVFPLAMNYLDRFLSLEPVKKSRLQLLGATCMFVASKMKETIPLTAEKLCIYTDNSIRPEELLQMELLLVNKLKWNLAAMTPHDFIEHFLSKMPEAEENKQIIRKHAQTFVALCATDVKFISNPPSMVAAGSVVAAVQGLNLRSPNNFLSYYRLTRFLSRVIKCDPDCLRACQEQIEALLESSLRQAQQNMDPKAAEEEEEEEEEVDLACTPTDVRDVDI
Compound,"IC50 (CDK4/CyclinD1; CDK4/CyclinD1, 200 μM ATP) [nM]","IC50 (CDK2/CyclinE1; CDK2/CyclinE1, 100 μM ATP) [nM]","IC50 (T47D breast cancer cells; Homo sapiens, T47D) [nM]","IC50 (CDK6/CyclinD3; CDK6/CyclinD3, 300 μM ATP) [nM]","IC50 [1, 2] [nM]",IC50 (T47D breast cancer cells) [nM],"IC50 ([1]; read-out: Phospho T47D Ser807 IC50, pRb Ser807 phosphorylation, T47D cells) [nM]",IC50 (CDK4/CyclinD1; CDK4/CyclinD1) [nM],IC50 (CDK2/CyclinE1; CDK2/CyclinE1) [nM],IC50 (CDK6/CyclinD3; CDK6/CyclinD3) [nM]
"COc1nc(-c2nc(Nc3ccc(N4CCC(N(C)C)CC4=O)cn3)ncc2F)cc2c1nc(C)n2C(C)C (single isomer, unassigned) [Example 62-1, 4-(dimethylamino)-1-[6-[[5-fluoro-4-(1-isopropyl-4-methoxy-2-methyl-imidazo[4,5-c]pyridin-6-yl)pyrimidin-2-yl]amino]-3-pyridyl]piperidin-2-one]",< 10,> 1000,100 to 500,10 to 100,100 to 500,–,–,–,–,–
"COc1nc(-c2nc(Nc3ccc(N4CCC(N(C)C)CC4=O)cn3)ncc2F)cc2c1nc(C)n2C(C)C (single isomer, unassigned) [Example 62-2, 4-(dimethylamino)-1-[6-[[5-fluoro-4-(1-isopropyl-4-methoxy-2-methyl-imidazo[4,5-c]pyridin-6-yl)pyrimidin-2-yl]amino]-3-pyridyl]piperidin-2-one]",< 10,> 1000,–,10 to 100,–,< 100,< 100,–,–,–
"CNC1CCN(c2ccc(Nc3nccc(-c4ccn5ncc(C(C)C)c5c4)n3)nc2)C(=O)C1 (single isomer, unassigned) [Synthetic Example 205, 1-[6-[[4-(3-isopropylpyrazolo[1,5-a]pyridin-5-yl)pyrimidin-2-yl]amino]-3-pyridyl]-4-(methylamino)piperidin-2-one]",< 10,< 10,< 100,< 10,< 100,–,–,–,–,–
CC(C)c1cnn2ccc(-c3ccnc(Nc4ccc(N5CCCNC5=O)cn4)n3)cc12 [Synthetic Example 1],< 10,100 to 1000,< 100,10 to 100,< 100,–,–,–,–,–
CC(C)c1cnn2ccc(-c3nc(Nc4ccc(N5CCN(CCO)CCC5=O)cn4)ncc3F)cc12 [Synthetic Example 52],< 10,10 to 100,–,10 to 100,< 100,–,–,–,–,–
COc1nc(-c2ccnc(Nc3ccc4c(n3)CCN(C(=O)CN(C)C)C4)n2)cc2c1ncn2C(C)C [Synthetic Example 140],< 10,> 1000,–,10 to 100,< 100,–,–,–,–,–
CCN1CCN(Cc2ccc(Nc3ncc(F)c(-c4cc(C)n5ncc(C(C)C)c5c4)n3)nc2)CC1 [compound 5],10 to 100,–,> 1000,100 to 1000,> 1000,–,–,–,–,–
COc1nc(-c2ccnc(Nc3ccc(N4CCC(N5CCOCC5)CC4=O)cn3)n2)cc2c1ncn2C(C)C (stereo not shown) [compound 100],–,–,–,–,100 to 500,–,–,< 10,100 to 1000,10 to 100
COc1nc(-c2ccnc(Nc3ccc(N4CCNCC4=O)cc3F)n2)cc2c1ncn2C(C)C [compound 114],< 10,10 to 100,–,10 to 100,100 to 500,–,–,–,–,–
COc1nc(-c2ccnc(Nc3ccc(N4CCNCC4=O)nc3)n2)cc2c1ncn2C(C)C [compound 119],< 10,10 to 100,–,10 to 100,100 to 500,–,–,–,–,–
COc1nc(-c2ccnc(Nc3ccc(N4CCN(C5COC5)CC4)cn3)n2)cc2c1ncn2C(C)C [compound 130],< 10,> 1000,100 to 500,–,100 to 500,–,–,–,–,–
CCN1CCN(c2ccc(Nc3nccc(-c4cc5c(ncn5C(C)C)c(OC)n4)n3)nc2)C(=O)C1 [compound 134],< 10,100 to 1000,–,10 to 100,< 100,–,–,–,–,–
COc1nc(-c2nc(Nc3ccc(N4CCN(C5CCOCC5)CC4=O)cn3)ncc2F)cc2c1nc(C)n2C(C)C [compound 136],< 10,> 1000,–,10 to 100,100 to 500,–,–,–,–,–
COc1nc(-c2ccnc(Nc3ccc(N4CCN(C5COC5)CC4=O)cn3)n2)cc2c1ncn2C(C)C [compound 137],< 10,100 to 1000,–,10 to 100,< 100,–,–,–,–,–
CC(C)c1cnn2ccc(-c3ccnc(Nc4ccc(C(=O)N5CCC5)cc4)n3)cc12 [compound 169],< 10,< 10,–,10 to 100,< 100,–,–,–,–,–
CCNC1CCN(c2ccc(Nc3nccc(-c4ccn5ncc(C(C)C)c5c4)n3)nc2)C(=O)C1 (stereo not shown) [compound 209],< 10,< 10,< 100,–,< 100,–,–,–,–,–
CC(C)(C)c1cnn2ccc(-c3ccnc(Nc4ccc(N5CCCC(N)C5=O)cc4)n3)cc12 (stereo not shown) [compound 218],< 10,< 10,–,< 10,< 100,–,–,–,–,–
CC(C)c1cnn2ccc(-c3ccnc(Nc4ccc(N5CCNCC5=O)nc4)n3)cc12 [compound 227],< 10,< 10,< 100,–,< 100,–,–,–,–,–
CC(C)n1cnc2c1CN(c1ccnc(Nc3ccc(N4CCN(S(C)(=O)=O)CC4=O)cn3)n1)CC2 [compound 240],10 to 100,10 to 100,> 1000,–,> 1000,–,–,–,–,–
CCN1CCN(c2ccc(Nc3nccc(N4CCc5ncn(C(C)C)c5C4)n3)nc2)C(=O)C1 [compound 241],10 to 100,100 to 1000,100 to 500,–,< 100,–,–,–,–,–
CC(C)n1cnc2c1CN(c1ccnc(Nc3ccc(N4CCC(N5CC(F)C5)CC4=O)cn3)n1)CC2 (stereo not shown) [compound 243],10 to 100,10 to 100,500 to 1000,–,100 to 500,–,–,–,–,–
CN(C)C1CCCN(c2ccc(Nc3nccc(-c4cc(F)c5c(c4)C(C)(C)CO5)n3)nc2)C1=O (stereo not shown) [compound 261],< 10,> 1000,–,10 to 100,< 100,–,–,–,–,–
CC1(C)COc2c(F)cc(-c3ccnc(Nc4ccc(N5CCCNC5=O)cn4)n3)cc21 [compound 262],< 10,100 to 1000,< 100,–,< 100,–,–,–,–,–
CC(C)n1cnc2c(F)nc(-c3ccnc(Nc4ccc(N5CCC(C)(N)CC5=O)cn4)n3)cc21 (stereo not shown) [compound 271],< 10,10 to 100,–,< 10,< 100,–,–,–,–,–
CC(C)n1cnc2c(F)nc(-c3ccnc(Nc4ccc(N5CCCNC5=O)cn4)n3)cc21 [compound 275],< 10,100 to 1000,–,< 10,< 100,–,–,–,–,–
CCN1CCN(c2ccc(Nc3nccc(-c4cc5c(ncn5C(C)C)c(F)n4)n3)nc2)CC1 [compound 289],< 10,100 to 1000,–,< 10,< 100,–,–,–,–,–
COc1nc(-c2ccnc(Nc3ccc(N4CCC(C)(N)CC4=O)cn3)n2)cc2c1ncn2C(C)C (stereo not shown) [compound 313],–,–,–,–,< 100,–,–,10 to 100,100 to 1000,< 10
